Measurements: US20070265288A1 (priority 2004, published 2007)
Read-outs that look alike come from different tables or passages of the source.

How the values were obtained:
[1] = Hygroscopicity of the crystal form according to the invention; type: physicochemical
[2] = Forced degradation (stress) study of imatinib mesylate alpha form; type: physicochemical
[3] = alpha form obtained by process of WO 99/03854; cited from earlier work
[4] = 60° C. for 48 hours, listed as RD/IMT-4/31
[5] = 60° C. for 48 hours, listed as RD/IMT-4/34
[6] = 105° C. for 12 hours, listed as RD/IMT-4/31
[7] = 105° C. for 12 hours, listed as RD/IMT-4/34
[8] = As such (i.e. no stress condition)
[9] = As such (i.e. no stress condition), listed as RD/IMT-4/31
[10] = As such (i.e. no stress condition), listed as RD/IMT-4/34
[11] = UV −45° C. 75 RH for 12 hours, listed as RD/IMT-4/31
[12] = UV −45° C. 75 RH for 12 hours, listed as RD/IMT-4/34

**Q.** Which “HPLC single maximum impurity content” value (Initial) does the source give for `CS(=O)(=O)O.Cc1ccc(NC(=O)c2ccc(CN3CCN(C)CC3)cc2)cc1Nc1nccc(-c2cccnc2)n1` [imatinib mesylate] here?
**A.** 0.23 wt %

**Q.** And the “HPLC total impurity content” value (Initial)?
**A.** 0.50 wt %

**Q.** And the Water content (Initial)?
**A.** 0.39 wt %

**Q.** What about the “HPLC single maximum impurity content” value (after 6 months) of the same compound?
**A.** 0.11 wt %

**Q.** And the “HPLC total impurity content” value (after 6 months)?
**A.** 0.33 wt %

**Q.** What about the Water content (after 6 months) of the same compound?
**A.** 0.61 wt %

**Q.** What about the “HPLC single maximum impurity content” value (after 12 months) of the same compound?
**A.** 0.15 wt %

**Q.** What about the “HPLC total impurity content” value (after 12 months) of the same compound?
**A.** 0.41 wt %

**Q.** What about the Water content (after 12 months) of the same compound?
**A.** 0.58 wt %

**Q.** What about the stability on storage (storage at ambient temperature) of the same compound?
**A.** stable chemically and polymorphically

**Q.** What about the hygroscopicity [1] of the same compound?
**A.** non-hygroscopic

**Q.** And the DSC ([2]; 60° C. for 48 hours)?
**A.** Complies

**Q.** And the XRPD ([2]; 60° C. for 48 hours)?
**A.** Complies

**Q.** And the DESCRIPTION [2, 4]?
**A.** Pale yellow

**Q.** What about the Purity [2, 4] of the same compound?
**A.** 99.44%

**Q.** And the “Single Max. impurity” value [2, 4]?
**A.** 0.20%

**Q.** And the DESCRIPTION [2, 5]?
**A.** Cream coloured

**Q.** What about the Purity [2, 5] of the same compound?
**A.** 99.17%

**Q.** And the “Single Max. impurity” value [2, 5]?
**A.** 0.30%

**Q.** And the DSC ([2]; 105° C. for 12 hours)?
**A.** Complies

**Q.** And the XRPD ([2]; 105° C. for 12 hours)?
**A.** Complies

**Q.** And the DESCRIPTION [2, 6]?
**A.** Pale yellow

**Q.** What about the Purity [2, 6] of the same compound?
**A.** 99.49%

**Q.** And the “Single Max. impurity” value [2, 6]?
**A.** 0.17%

**Q.** And the DESCRIPTION [2, 7]?
**A.** Cream coloured

**Q.** What about the Purity [2, 7] of the same compound?
**A.** 99.18%

**Q.** What about the “Single Max. impurity” value [2, 7] of the same compound?
**A.** 0.32%

**Q.** What about the DSC [2, 8] of the same compound?
**A.** Complies

**Q.** What about the XRPD [2, 8] of the same compound?
**A.** Complies

**Q.** And the DESCRIPTION [2, 9]?
**A.** Pale yellow

**Q.** What about the Purity [2, 9] of the same compound?
**A.** 99.45%

**Q.** What about the “Single Max. impurity” value [2, 9] of the same compound?
**A.** 0.18%

**Q.** And the DESCRIPTION [2, 10]?
**A.** Cream coloured

**Q.** What about the Purity [2, 10] of the same compound?
**A.** 99.26%

**Q.** What about the “Single Max. impurity” value [2, 10] of the same compound?
**A.** 0.33%

**Q.** And the DSC ([2]; UV −45° C. 75 RH for 12 hours)?
**A.** Complies

**Q.** What about the XRPD ([2]; UV −45° C. 75 RH for 12 hours) of the same compound?
**A.** Complies

**Q.** And the DESCRIPTION [2, 11]?
**A.** Pale yellow

**Q.** What about the Purity [2, 11] of the same compound?
**A.** 99.38%

**Q.** And the “Single Max. impurity” value [2, 11]?
**A.** 0.19%

**Q.** What about the DESCRIPTION [2, 12] of the same compound?
**A.** Cream coloured

**Q.** What about the Purity [2, 12] of the same compound?
**A.** 99.18%

**Q.** What about the “Single Max. impurity” value [2, 12] of the same compound?
**A.** 0.34%

**Q.** What about the “polymorphic stability by DSC and XRPD evaluation” value ([2]; before and after stress study) of the same compound?
**A.** polymorphically stable

**Q.** And the “polymorphic identity under stress conditions” value ([2]; stress conditions such as milling or heating)?
**A.** retain the polymorphic identity

**Q.** And the “level of impurities before and after stability study” value ([2]; stress: 60° C. 48 hours, 105° C. 12 hours, UV 45° C. at 75% RH 12 hours)?
**A.** no increase in the level of impurities

**Q.** Which hygroscopicity [3] does the source give for `CS(=O)(=O)O.Cc1ccc(NC(=O)c2ccc(CN3CCN(C)CC3)cc2)cc1Nc1nccc(-c2cccnc2)n1` [alpha-crystalline form] here?
**A.** highly hygroscopic

**Q.** And the stability [3]?
**A.** not stable
